The record followed here is publication PMC7129073 (Clinical Microbiology and Infection, 2015).

≈ marks a conversion by molar mass, not a printed value. Entries after “also recorded” stand apart in the source; their conditions may differ. Where only a bound is given, the exact number is not on record here.

The subject of one test is Enterobacter spp. The experiment in a line: E-test susceptibility. Type of test: cell-based.
For another test, the system named is K. pneumoniae. The test is described as follows: E-test susceptibility. Type of test: cell-based, Klebsiella pneumoniae.
The test system of test [1] is E. coli (TEM 10 transformant). The experiment in a line: NCCLS agar dilution MIC. Type of test: cell-based. The following applies: Escherichia coli. For orientation: In agar dilution, organisms are placed on agar that contains the substance at set levels.
The subject of a further test is Enterobacteriaceae. The experiment in a line: SMART 2003 Europe, microdilution. The following applies: 1948 isolates. Type of test: cell-based. A general note: Broth dilution looks for growth in wells or tubes with falling amounts of substance.
The test system of the next test is Klebsiella. The test is described as follows: SMART 2003 Europe, microdilution. The following applies: 341 isolates. Format: cell-based, Klebsiella spp.
In another test the test system is Escherichia coli. The experiment in a line: Vitek 2 susceptibility, urine isolates of children. Format: cell-based.
The test system of the next test is K. oxytoca. The test is described as follows: E-test susceptibility. Format: cell-based, Klebsiella oxytoca.
The test system of another test is P. aeruginosa. Type of test: cell-based, Pseudomonas aeruginosa.
The test system of test [2] is E. coli. The experiment in a line: E-test susceptibility. Format: cell-based, Escherichia coli.
In test [3] the test system is P. aeruginosa strains from CF sputa. The test is described as follows: O-serotyping. The following applies: exposure to 1/2–1/16 MIC (ceftazidime) or 1/2–1/8 MIC (ciprofloxacin). Format: cell-based, Pseudomonas aeruginosa.
The subject of test [4] is Pseudomonas putida clinical isolates. The experiment in a line: Agar dilution MIC. Format: cell-based.
The test system of test [5] is E. coli (OXA 5 transformant). The experiment in a line: NCCLS agar dilution MIC. The following applies: Escherichia coli. Type of test: cell-based.
The subject of test [6] is Morganella morganii (ceftazidime R). The experiment in a line: NCCLS agar dilution MIC. Format: cell-based. More on the design: unit not given beside the values. The conditions noted are these: n=2.
In test [7] the test system is E. coli (TEM 9 transformant). The experiment in a line: NCCLS agar dilution MIC. Format: cell-based. The conditions noted are these: Escherichia coli, n=1 per table line (three lines).
Test [8] relates to E. coli. The experiment in a line: SMART 2003 Europe, microdilution. Format: cell-based, Escherichia coli. The following applies: 1106 isolates.
The test system of another test is Pseudomonas aeruginosa. The test is described as follows: MIC, strains from cystic fibrosis patients. The following applies: by MIC.
The subject of a further test is Escherichia coli (ECO). The experiment in a line: Broth microdilution. The conditions noted are these: 2001. Type of test: cell-based.
The next test has as its system Acinetobacter. The experiment in a line: Disk diffusion. Format: cell-based. The following applies: 37 isolates selected as resistant to beta-lactams. (In general: Agar diffusion results depend on both activity and mobility in agar.)
The subject of test [9] is inducible Enterobacteriaceae. The test is described as follows: SMART 2003, intraabdominal isolates. Format: cell-based.
The subject of test [10] is Citrobacter freundii (ceftazidime R). The test is described as follows: NCCLS agar dilution MIC. The following applies: n=6. Type of test: cell-based.

Turning to `CC(C)(O/N=C(\C(=O)N[C@@H]1C(=O)N2C(C(=O)[O-])=C(C[n+]3ccccc3)CS[C@H]12)c1csc(N)n1)C(=O)O` [ceftazidime], the Susceptible isolates in the test on Enterobacter spp (ICU) is recorded as 75%; in the test on Enterobacter spp (non ICU), 89%; in the test on K. pneumoniae (ICU) it was 98%; with K. pneumoniae (non ICU) it was 100%; with K. oxytoca (ICU) it was 100/100%; in the test on K. oxytoca (non ICU) it was 100/100%. In addition, the Susceptible isolates in the test on E. coli [2] (ICU, SRGA breakpoints, tigecycline tentative S ≤2 μg/ml) was determined as 98%; with E. coli [2] (non ICU) it was 99%; in the test on Pseudomonas aeruginosa it was 84%. Further, the MIC (usually the smallest concentration in the dilution series that meets the test's criterion for growth inhibition) in test [1] is over 128 µg/mL; in test [4], over 128 µg/mL; in test [5], 64 µg/mL (≈ 117 µM); in test [7] it was over 128 µg/mL. Moreover, the per cent susceptible in the test with Enterobacteriaceae is 92%; with Klebsiella it was 94%; in the test with E. coli [8] it was 96%. Besides, the figures for the susceptibility rate in the test with Escherichia coli (paediatric surgical unit (PSU)) and in the test on Escherichia coli (paediatric units (PU)) were 39% and 95%, respectively. In the test with P. aeruginosa, this molecule gave a resistant of 32%. In test [3], the “change of agglutination type of nine monoagglutinable strains” value is listed as “seven strains have become auto-agglutinable; also recorded: two strains have become polyagglutinable”. For the same molecule, the “MIC (two isolates)” value in test [6] was 16/64. Also, the susceptible was determined as 93.3% in the test on Escherichia coli (ECO) (NAL-resistant isolates) and 99.0% with Escherichia coli (ECO) (NAL-susceptible isolates). The same molecule registered a resistant isolates with Acinetobacter of 56.8%. In addition, the “% susceptible” value in [9] (A/P (N = 200)) is on record as 59%; in [9] (EU (N = 354)), 75%; in test [9] (LA (N=113)), 69%; in test [9] (NA (N = 163)) it was 71%.
Consider `C[C@H]1[C@H](NC(=O)/C(=N\OC(C)(C)C(=O)O)c2csc(N)n2)C(=O)N1S(=O)(=O)O` [aztreonam], for which the MIC in test [1] was 32 µg/mL (≈ 73.5 µM); in [5], 16 µg/mL (≈ 36.7 µM). The molecule also showed an MIC range in [10] of 4 to 64 µg/mL. Besides, in [6], the “MIC (two isolates)” value is 2/8.
